Results on three compounds are retold here after US9567300B2, “Hexahydropentaleno derivatives, preparation method and use in medicine thereof” (SUNSHINE LAKE PHARMA CO., LTD., priority 2012, dated 2017).

The target of one experiment is T1, DPP-IV (Homo sapiens, UniProt P27487).
T1 construct: purchased R&D 1180-SE
As to the kind of experiment: Active inhibition DPP-IV assay (Gly-Pro-AMC substrate, fluorescence). Format: biochemical. To be noted: Gly-Pro-AMC 10 μM, 25 mM Tris pH 8.0. The procedure:
(§1) The following methods were used for testing the inhibitive action of the compound disclosed herein against DPP-IV, DPP-8 and DPP-9 enzymatic activity. The inhibitive ability of the compound disclosed herein against enzymatic activity of DPP-IV, DPP-8 and DPP-9 was tested. The measurements of the inhibition ratio or the 50% inhibiting concentration IC50 of every compound were based on a fixed quantity of enzyme-substrate mixtures and different concentrations of the test compounds.
DPP-IV enzyme was purchased from R&D, Catalog No. 1180-SE.
(§2) The test compound was dissolved in an appropriate amount of DMSO to prepare 100 mM mother liquor, which was divided into EP tubes and preserved at −20° C. The mother liquor was diluted with an assay buffer to prepare solutions with required concentrations. Sample solutions with different concentrations (4 μL) and certain concentration of DPP-IV (DPP-8 or DPP-9) solution (4 μL) were added into 384-well plates in turn. Referred to the instruction manual, Gly-Pro-AMC was selected as a substrate and the concentration thereof was 10 μM. The 16 mM mother liquor was prepared from the substrate and preserved at −20° C. for use. The 16 mM mother liquor was diluted with an assay buffer to a solution of known concentration. The assay buffer of DPP-IV was 25 mM Tris, and its pH was 8.0. The assay buffers of DPP-8 and DPP-9 were 50 mM Tris, and their pH was 7.5. The substrate mother liquor was diluted with an assay buffer, and the mixture (4 μL) was added into 384-well plates to prepare final solution concentration. The whole process was carried out in an ice bath. After the addition of the components of the assay system was completed, the system was centrifuged. The supernatant was then transferred to an Infinite F200 multifunctional microplate reader, and 20 fluorescence values were recorded every 30 sec. And then Slope (V0) was calculated directly by the software of microplate reader, fetching the data in the linear range. The measured reaction rate and the corresponding inhibition concentration were analyzed. Percent inhibition is I(%)=(V0−Vi)/V0×100%. Vi represents the initial reaction rate at different inhibition concentrations. V0 represents the initial reaction rate without inhibitor. Vi/V0 represents the inhibition level of inhibitor. Relevant curve chart was made with inhibition concentration as a horizontal coordinate and the value of Vi/V0 as a vertical coordinate. The IC50 values were calculated by Graph Pad Prism statistical analysis software.

For the next experiment, the target named is T2, DPP-8 (Homo sapiens, UniProt Q6V1X1).
T2 construct: purchased Biomol SE-827
The experiment can be described thus: Active inhibition DPP-8 assay (Gly-Pro-AMC substrate, fluorescence). To be noted: Gly-Pro-AMC 10 μM, 50 mM Tris pH 7.5. In kind it is biochemical. The procedure:
as §1
DPP-8 enzyme was purchased from Biomol, Catalog No. SE-827.
as §2

The subject of the next experiment is normal C57BL/6 mice. As to the kind of experiment: Effects of DPP-IV inhibitors on the blood glucose of normal C57BL/6 mice (oral glucose tolerance). Format: in vivo. To be noted: oral 5 mg/kg; for Nor-sugar rate % (5 mg/kg): male C57BL/6 mice, glucose 2.5 g/kg by gavage 30 min after administration; for hypoglycemic activities for C57BL/6 mice: conclusion in words. The procedure:
The effects of the test compounds on the oral glucose tolerance of normal C57BL/6 mice were observed, and the hypoglycemic activities of these compounds in vivo were evaluated preliminarily.
Preparation procedure: Drugs were accurately weighed, and 5 mg of compounds of examples 3, 9 15, 16 and 17 were dissolved respectively in 20 mL of normal saline to obtain 0.25 mg/mL solutions.
Administrated Dose: The oral dose was 5 mg/kg and the gavage dose was 0.02 mL/g.
Test Method: The normal male C57BL/6 mice were grouped randomly into a blank control group, a positive control group, and treatment groups having 7 mice each group.
Administration and Serum Glucose Determination: C57BL/6 mice of each group were fasted for 18 hours before the experiment. The blood was drawn from the caudal vein of the mice and the glucose level was measured by using a blood-glucose meter. After detection, 0.25 mg/mL of positive control, 0.25 mg/mL of examples 3, 9, 15, 16 and 17 and normal saline were respectively administered to the positive control group, treatment groups and blank control group by intragastric administration. The blood glucose level (0 min) of positive control group was measured in 60 min after administration. The blood glucose levels (0 min) of the other groups were measured in 30 min after administration, and then glucose (2.5 g/kg) was administered to the mice through gavage. The blood was drawn from the caudal vein of the mice in 15 min, 30 min, 45 min, 60 min, 120 min after administration. The blood glucose levels of C57BL/6 mice were measured continuously by blood-glucose meter.
1. Glucose concentration-time curve was plotted, and AUC from 0 to 120 min and hypoglycemic rate of each dosage group at blood glucose peak were calculated.
2. Experimental data were represented in x±SD. The data were analyzed by SPSS 16.0 software. The data were compared between multiple groups using nonparametric Kruskal-Wallis H test method.

The next experiment has as its target T3, DPP-9 (Homo sapiens, UniProt Q86TI2).
T3 construct: purchased Bioscience 80090
As to the kind of experiment: Active inhibition DPP-9 assay (Gly-Pro-AMC substrate, fluorescence). In kind it is biochemical. To be noted: Gly-Pro-AMC 10 μM, 50 mM Tris pH 7.5. The procedure:
as §1
DPP-9 enzyme was purchased from Bioscience, Catalog No. 80090.
as §2

T1 sequence (P27487 whole entry): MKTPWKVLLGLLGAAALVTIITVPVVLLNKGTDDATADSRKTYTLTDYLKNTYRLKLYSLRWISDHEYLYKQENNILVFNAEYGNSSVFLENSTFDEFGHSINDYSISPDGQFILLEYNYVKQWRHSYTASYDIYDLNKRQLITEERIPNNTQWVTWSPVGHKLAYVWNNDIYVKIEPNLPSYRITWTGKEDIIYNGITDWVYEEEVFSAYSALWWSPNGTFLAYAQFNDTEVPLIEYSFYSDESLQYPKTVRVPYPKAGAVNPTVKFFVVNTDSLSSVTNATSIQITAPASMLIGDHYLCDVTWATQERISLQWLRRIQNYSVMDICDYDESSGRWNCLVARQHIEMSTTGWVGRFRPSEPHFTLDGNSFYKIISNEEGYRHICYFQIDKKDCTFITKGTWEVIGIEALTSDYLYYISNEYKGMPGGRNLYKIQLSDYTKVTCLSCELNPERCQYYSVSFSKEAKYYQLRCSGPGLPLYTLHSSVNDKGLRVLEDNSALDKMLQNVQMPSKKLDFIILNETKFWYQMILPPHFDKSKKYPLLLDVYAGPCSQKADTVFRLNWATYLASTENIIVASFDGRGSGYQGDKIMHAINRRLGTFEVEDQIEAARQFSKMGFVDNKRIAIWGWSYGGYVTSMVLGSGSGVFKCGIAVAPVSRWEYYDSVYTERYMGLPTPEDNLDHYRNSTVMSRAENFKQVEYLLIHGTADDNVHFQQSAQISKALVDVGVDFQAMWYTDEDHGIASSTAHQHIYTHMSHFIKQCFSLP
T2 sequence (Q6V1X1 whole entry): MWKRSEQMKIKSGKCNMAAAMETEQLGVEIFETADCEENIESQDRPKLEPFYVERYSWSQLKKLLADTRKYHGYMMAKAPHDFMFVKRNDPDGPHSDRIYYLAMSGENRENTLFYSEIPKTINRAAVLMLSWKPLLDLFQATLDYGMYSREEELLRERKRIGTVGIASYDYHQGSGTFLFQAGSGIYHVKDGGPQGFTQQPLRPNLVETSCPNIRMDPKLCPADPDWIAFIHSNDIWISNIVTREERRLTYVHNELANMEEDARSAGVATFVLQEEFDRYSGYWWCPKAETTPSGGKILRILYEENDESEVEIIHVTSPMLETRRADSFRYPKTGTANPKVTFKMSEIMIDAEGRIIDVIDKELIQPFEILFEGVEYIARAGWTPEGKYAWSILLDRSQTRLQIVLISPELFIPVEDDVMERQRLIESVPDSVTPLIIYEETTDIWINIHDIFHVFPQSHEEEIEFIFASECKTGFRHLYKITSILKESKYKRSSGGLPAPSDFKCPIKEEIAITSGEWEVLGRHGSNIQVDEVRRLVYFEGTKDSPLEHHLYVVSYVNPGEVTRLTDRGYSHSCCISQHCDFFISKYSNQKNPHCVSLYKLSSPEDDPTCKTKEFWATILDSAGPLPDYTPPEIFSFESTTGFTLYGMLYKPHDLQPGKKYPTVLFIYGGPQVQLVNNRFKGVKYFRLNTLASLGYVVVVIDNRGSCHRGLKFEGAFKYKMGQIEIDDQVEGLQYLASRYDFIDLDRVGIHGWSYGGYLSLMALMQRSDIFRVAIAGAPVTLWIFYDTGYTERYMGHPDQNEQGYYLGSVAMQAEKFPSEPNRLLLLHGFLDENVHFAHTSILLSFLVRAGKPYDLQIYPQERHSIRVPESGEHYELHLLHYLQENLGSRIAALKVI
T3 sequence (Q86TI2 whole entry): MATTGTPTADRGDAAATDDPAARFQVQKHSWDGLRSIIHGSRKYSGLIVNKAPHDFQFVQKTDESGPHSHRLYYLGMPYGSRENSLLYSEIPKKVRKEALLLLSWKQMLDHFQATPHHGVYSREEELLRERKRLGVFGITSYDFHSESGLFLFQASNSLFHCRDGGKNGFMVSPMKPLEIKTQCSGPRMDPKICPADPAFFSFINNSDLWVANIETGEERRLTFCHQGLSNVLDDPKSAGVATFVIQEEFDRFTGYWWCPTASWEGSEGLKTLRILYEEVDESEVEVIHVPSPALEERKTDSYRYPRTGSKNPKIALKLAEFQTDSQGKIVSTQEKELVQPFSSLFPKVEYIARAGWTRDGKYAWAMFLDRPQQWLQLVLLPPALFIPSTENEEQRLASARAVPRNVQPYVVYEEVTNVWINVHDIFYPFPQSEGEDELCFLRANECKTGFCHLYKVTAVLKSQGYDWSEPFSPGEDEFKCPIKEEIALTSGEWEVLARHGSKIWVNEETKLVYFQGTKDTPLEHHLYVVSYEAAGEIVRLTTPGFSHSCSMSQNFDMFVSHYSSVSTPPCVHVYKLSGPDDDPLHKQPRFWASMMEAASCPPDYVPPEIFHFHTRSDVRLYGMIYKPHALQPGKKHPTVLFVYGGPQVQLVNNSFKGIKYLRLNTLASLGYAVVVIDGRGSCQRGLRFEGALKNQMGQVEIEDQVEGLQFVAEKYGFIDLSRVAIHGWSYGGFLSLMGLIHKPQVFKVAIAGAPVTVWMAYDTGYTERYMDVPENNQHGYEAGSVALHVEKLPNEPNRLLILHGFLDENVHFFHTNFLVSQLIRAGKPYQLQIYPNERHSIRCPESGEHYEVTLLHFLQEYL

Take `CC(=O)O[C@@H]1C[C@@H]2C[C@@](C)(NCC(=O)N3C[C@@H](F)C[C@H]3C#N)C[C@@H]2C1` [Example 17, (2S,3aR,5r,6aS)-5-((2-((2S,4S)-2-cyano-4-fluoropyrrolidin-1-yl)-2-oxoethyl)amino)-5-methyloctahydropentalen-2-yl acetate]: the IC50 at DPP-IV amounted to 0.00272 µM; against DPP-8, 3.7 µM; against DPP-9, 0.048 µM. Also, the “Nor-sugar rate % (5 mg/kg)” value in the experiment on normal C57BL/6 mice is given as 30.4%. Besides, the “hypoglycemic activities for C57BL/6 mice” value with normal C57BL/6 mice is “good hypoglycemic activities”.

As for `C[C@@]1(NCC(=O)N2C[C@@H](F)C[C@H]2C#N)C[C@H]2CC(C#N)C[C@H]2C1` (stereo partly drawn) [Example 15, (2S,4S)-1-(2-(((2s,3aR,6aS)-5-cyano-2-methyloctahydropentalen-2-yl)amino)acetyl)-4-fluoropyrrolidine-2-carbonitrile], the IC50 against DPP-IV turned out to be 0.00156 µM; against DPP-8 it was 1.26 µM; against DPP-9, 0.02 µM. Moreover, in the experiment on normal C57BL/6 mice, the “Nor-sugar rate % (5 mg/kg)” value is 24.72%. For the same compound, in the experiment with normal C57BL/6 mice, the “hypoglycemic activities for C57BL/6 mice” value is listed as “good hypoglycemic activities”.

With `C[C@@]1(NCC(=O)N2C[C@@H](F)C[C@H]2C#N)C[C@H]2C[C@H](O)C[C@H]2C1` [Example 9, (2S,4S)-4-fluoro-1-(2-(((2r,3aR,5R,6aS)-5-hydroxy-2-methyloctahydropentalen-2-yl)amino)acetyl)pyrrolidine-2-carbonitrile], the IC50 is 0.00401 µM on DPP-IV, 2.85 µM at DPP-8 and 0.029 µM at DPP-9. In the experiment with normal C57BL/6 mice, the “Nor-sugar rate % (5 mg/kg)” value is 18.7%. Moreover, the “hypoglycemic activities for C57BL/6 mice” value in the experiment on normal C57BL/6 mice is listed as “good hypoglycemic activities”.
